This is an account of results in patent US20260364184A1, “COMPOUND BASED ON OXOISOINDOLINYL-SUBSTITUTED TETRAHYDROPYRIMIDINE-DIONE AND USE THEREOF” (GLUETACS THERAPEUTICS (SHANGHAI) CO., LTD., priority 2023, published 2026).

Molecules are shown by their SMILES. Where two headings read alike, the source gives them in different places.

Experiment [1] deals with Human Acute T Lymphoblastic Leukemia Cells (Molt-4). The experiment is described as follows: Inhibition of Molt-4 cell proliferation (CellTiter luminescent viability). Type of experiment: cell-based. To be noted: for Inhibition Rate at 10 nM (%) / Inhibition Rate at 500 nM (%): Molt-4; for inhibition at 0.01 µM / inhibition at 0.5 µM: Homo sapiens, MOLT-4, Molt-4; for Inhibition Rate at 10 nM (%) / inhibition at 0.01 µM: 10 nM; for inhibition at 0.01 µM: read-out: Inhibition Rate at 10 nM (%); for Inhibition Rate at 500 nM (%) / inhibition at 0.5 µM: 500 nM; for inhibition at 0.5 µM: read-out: Inhibition Rate at 500 nM (%).

In experiment [2] the test system is Human myeloid monocytic leukemia cell line (MV-4-11). The experiment is described as follows: Inhibition of MV-4-11 cell proliferation (CellTiter luminescent viability). Type of experiment: cell-based. The following applies: for inhibition at 0.01 µM / inhibition at 0.5 µM: Homo sapiens, MV4-11; for inhibition at 0.01 µM: read-out: Inhibition Rate at 10 nM (%); for inhibition at 0.5 µM: read-out: Inhibition Rate at 500 nM (%). A digest of the protocol: (§1)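 IC50 is fitted from luminescent viability (CellTiter-Meiluncell) curves. Nine-point, 5-fold dilution series (top stock 2000 μM) are added at 0.5 μL per 100 μL medium to cells plated the day before, with growth at 37 °C and 5% CO2.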

The test system of experiment [3] is Human diffuse large B-cell lymphoma cell line (WSU-DLCL2). Description: Inhibition of WSU-DLCL2 cell proliferation (CellTiter luminescent viability). In kind it is cell-based. The following applies: for inhibition at 0.01 µM / inhibition at 0.5 µM: Homo sapiens; for inhibition at 0.01 µM: WSUDLCL2, 10 nM, read-out: Inhibition Rate at 10 nM (%); for inhibition at 0.5 µM: WSUDLCL2, 500 nM, read-out: Inhibition Rate at 500 nM (%). The protocol: (§2) The tumor cells used herein were cultured in a cell culture medium listed in table 3 at 37 °C in an incubator with 5% CO2. Prior to experimentation, all cell lines used were correctly identified by STR profiling, and tested negative for mycoplasma contamination using a mycoplasma detection kit through routine screenings.
(§3) The IC50 values of the compounds of the present disclosure (including the compounds in Table 1, Table 2, and Examples 1-468) were determined using the CellTiter-Meiluncell Luminescent Cell Viability Assay Kit from Dalian Meilun Biotech Co., Ltd. The detailed procedure is as follows: Tumor cells were seeded in 96-well cell culture plates at the densities specified in Table 4. On the following day, the test compounds of the present disclosure were subjected to serial dilution. The dilution can be performed according to one of the following two methods: • (1) The first dilution method: The test compounds of the present disclosure (including the compounds in Table 1, Table 2, and Examples 1-468) were subjected to 5-fold serial dilutions starting from a highest concentration of 2000 μM, resulting in a total of 9 concentrations from high to low (2000, 400, 80, 16, 3.2, 0.64, 0.128, 0.0256, 0.00512 μM). Subsequently, 0.5 μL of the test compound dilution was transferred into the 96-well plate containing the cells, with each well containing 100 μL of cell culture medium. […] Into the 96-well plate, the diluted test compounds and corresponding detection reagents were added, resulting in final test compound concentrations of 500 nM and 10 nM, respectively. The experimental procedure is described below using the diluted 2 μM test compound as an example.
(§4) 0.5 μL of the aforementioned diluted compound of the present disclosure (including the compounds in Table 1, Table 2, and Examples 1-468) was added to the seeded cells in 100 μL of medium, yielding a final test compound concentration of 10 nM. After the cells were treated with the compounds of the present disclosure for a specified period, the cell viability assay reagent was added to the culture medium according to the kit's instructions to determine cell viability. […] All controls were treated using the same procedure as the compounds of the present disclosure. The growth inhibition curves for the compounds of the present disclosure were plotted using Prism GraphPad software, and the IC50 values were calculated therefrom.

The target of the next experiment is T1, BCL-2 (Homo sapiens, UniProt P10415).
T1 construct: expression of target proteins in cells; endogenous in cells
T1 sequence (P10415 whole entry): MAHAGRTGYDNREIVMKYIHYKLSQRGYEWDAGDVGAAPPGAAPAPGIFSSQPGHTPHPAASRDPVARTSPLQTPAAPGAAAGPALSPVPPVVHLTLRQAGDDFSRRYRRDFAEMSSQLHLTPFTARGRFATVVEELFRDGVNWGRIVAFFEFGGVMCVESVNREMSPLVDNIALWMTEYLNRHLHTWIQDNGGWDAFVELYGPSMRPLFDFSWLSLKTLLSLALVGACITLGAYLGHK
The experiment is described as follows: Western blot degradation of BCL-2. In kind it is cell-based. To be noted: Molt-4 Cell; 24 hours. Here is the method:
Conventional Western blot assay was performed to evaluate the effects of the compounds of the present disclosure on the expression of target proteins in cells.
(1) Cell Seeding and Protein Harvesting: The selected cells were processed according to the cell seeding procedure and protein harvesting procedure in Table II-2.
(2) To the collected supernatant, 5×SDS sample loading buffer was added, followed by denaturation at 95 °C for 5 minutes. The denatured samples were then separated by SDS-PAGE electrophoresis on a polyacrylamide gel. Proteins were transferred to a nitrocellulose membrane (0.45 μm NC membrane), blocked with blocking buffer at room temperature for 1 hour, and subjected to antibody incubation and development procedures according to the antibody manufacturer's instructions (Cell Signaling Technology).
Half-Maximal Degradation Concentration value (the drug concentration required for degrading proteins by 50%, abbreviated as DC50) reads method: comparing the grayscale values of Western blot bands from drug-treated samples with those from blank DMSO-treated controls, and identifying the drug concentration range at which the grayscale value is half that of the DMSO-treated control bands.
DC50 values can be calculated using ImageJ software to measure grayscale values of Western blot bands from drug-treated samples. The concentration-response curve is fitted to estimate the drug concentration corresponding to half the grayscale value.
Target protein remaining (%) refers to the percentage of target protein remaining in cells after treatment with protein degrader compounds.
Calculation method for target protein remaining (%): Use ImageJ software to measure grayscale values of Western blot bands from drug (protein degrader)-treated samples. The grayscale value of drug-treated bands is divided by that of internal control protein bands, and the resulting quotient is normalized to obtain the relative percentage of remaining target protein after protein degrader treatment.
Target protein degradation rate (%)=1−target protein remaining (%).
Background: In western blotting, separated proteins are transferred to a membrane and probed.

The target of experiment [4] is T2, human Cereblon WT GST-tagged protein (CRBN) (Homo sapiens, UniProt Q96SW2).
T2 construct: purchased CISBIO 64BDCRBNPEH
T2 sequence (Q96SW2 whole entry): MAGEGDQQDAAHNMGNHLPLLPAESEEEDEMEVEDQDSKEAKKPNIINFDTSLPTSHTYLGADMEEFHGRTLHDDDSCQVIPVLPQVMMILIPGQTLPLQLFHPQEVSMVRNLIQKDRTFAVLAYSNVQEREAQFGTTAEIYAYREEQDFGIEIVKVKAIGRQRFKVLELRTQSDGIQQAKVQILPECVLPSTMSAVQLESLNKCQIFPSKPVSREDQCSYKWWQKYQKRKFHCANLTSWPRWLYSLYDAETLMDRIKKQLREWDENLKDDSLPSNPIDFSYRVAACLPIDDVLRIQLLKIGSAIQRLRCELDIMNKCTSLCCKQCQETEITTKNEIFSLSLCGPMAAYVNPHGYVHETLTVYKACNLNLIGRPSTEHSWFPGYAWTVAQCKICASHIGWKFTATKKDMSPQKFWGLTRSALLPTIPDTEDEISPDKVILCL
Description: CRBN binding by HTRF (Cereblon binding kit). In outline:
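GST-tagged human Cereblon WT was incubated 3 h at room temperature with compound, thalidomide-Re tracer and Eu anti-GST antibody. Final compound concentrations were 10 to 0.00064 µM (7 points) or 2 and 0.5 µM. Inhibition rate was calculated from HTRF 665/620 nm ratios versus solvent and blank controls.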
For orientation: Time-resolved FRET reads energy transfer from a long-lived donor to a nearby acceptor.

Experiment [5] deals with Human large cell immunoblastic lymphoma cell line SR. Description: Inhibition of SR cell proliferation (CellTiter luminescent viability). Type of experiment: cell-based. To be noted: 96 hours. In outline: as §1
Experiment [6] has as its system Human non-small cell lung cancer cell line NCI-H2228. The experiment is described as follows: Inhibition of H2228 cell proliferation (CellTiter luminescent viability). To be noted: Table IB2, ALK inhibitor-based, 96 hours. Here is the method:
as §2, §3, §4

Consider `CC(C)CCN1c2nc(Nc3cc(F)c(O)c(F)c3)ncc2N(C)C(=O)C1C` (stereo not shown) [BI-D1870, reference compound], for which the “Inhibition Rate at 10 nM (%)” value in experiment [1] (Table IN2) is “INb2 (−15% < INb2 < −5%)”; in experiment [1] (Table IN3) it was “INc1 (0% < INcl < 5%)”; in experiment [2] (MV-4-11, 10 nM) it was “INa3 (−5% ≤ INa3 ≤ 0%)”; in experiment [3] (10 nM), “INd1 (0% < INd1 < 5%)”. In addition, the “Inhibition Rate at 500 nM (%)” value in experiment [1] (Table IN2) is recorded as “INb5 (5% ≤ INb5 < 10%)”; in experiment [1] (Table IN3) it was “INc3 (10% ≤ INc3 < 15%)”; in experiment [2] (MV-4-11, 500 nM), “INa7 (20% ≤ INa7 < 30%)”; in experiment [3] (500 nM), “INd5 (20% ≤ INd5 < 30%)”.

As to `CC1(C)CCC(c2ccc(Cl)cc2)=C(CN2CCN(c3ccc(C(=O)NS(=O)(=O)c4ccc(N[C@H](CCN5CC6CCC(C5)N6Cc5ccc6c(c5)C(=O)N(N5CCC(=O)NC5=O)C6=O)CSc5ccccc5)c(S(=O)(=O)C(F)(F)F)c4)cc3)CC2)C1` [GT-07817, 4-(4-((4′-chloro-4,4-dimethyl-3,4,5,6-tetrahydro-[1,1′-biphenyl]-2-yl)methyl)piperazin-1-yl)-N-((4-(((2R)-4-(8-((2-(2,4-dioxotetrahydropyrimidin-1(2H)-yl)-1,3-dioxoisoindolin-5-yl)methyl)-3,8-diazabicyclo[3.2.1]octan-3-yl)-1-(phenylthio)butan-2-yl)amino)-3-((trifluoromethyl)sulfonyl)phenyl)sulfonyl)benzamide], the “Degradation of substrate protein BCL-2 (substrate protein remaining %)” value on BCL-2 is “A (0%≤substrate protein remaining %≤80%)”.

In the case of `C[C@@H]1CNC(=O)c2cc3ccc(C(=O)Nc4cnn(Cc5ccc(N6CCN(Cc7ccc8c(c7)CN(N7CCC(=O)NC7=O)C8=O)CC6)cc5)c4)nc3n21` [GT-08149, (R)—N-(1-(4-(4-((2-(2,4-dioxotetrahydropyrimidin-1(2H)-yl)-1-oxoisoindolin-5-yl)methyl)piperazin-1-yl)benzyl)-1H-pyrazol-4-yl)-9-methyl-6-oxo-6,7,8,9-tetrahydropyrido[3′,2′: 4,5]pyrrolo[1,2-a]pyrazine-2-carboxamide], the inhibition – broadly, the change of the read-out against control, counted positive when it falls – at 0.01 µM is -5 to 0% in experiment [1] (Table IN2); 5 to 10% in experiment [2] (MV-4-11, 10 nM); 5 to 10% in experiment [3]. Also, the inhibition at 0.5 µM in experiment [1] (Table IN2) was in the range of 30 to 50%; in experiment [2] (MV-4-11, 500 nM), 70 to 80%; in experiment [3], 40 to 50%; in experiment [4] (0.5 μM, read-out: Inhibition Rate at 0.5 μM (%)), 20 to 30%. Besides, the inhibition at 2 µM in experiment [4] (2 μM, read-out: Inhibition Rate at 2 μM (%)) was in the range of 53 to 60%.

As to `C[C@@H]1CNC(=O)c2cc3ccc(C(=O)Nc4cnn(Cc5ccc(N6CCC(N7CCN(Cc8ccc9c(c8)CN(N8CCC(=O)NC8=O)C9=O)CC7)CC6)cc5)c4)nc3n21` [GT-08151, (R)—N-(1-(4-(4-(4-((2-(2,4-dioxotetrahydropyrimidin-1(2H)-yl)-1-oxoisoindolin-5-yl)methyl)piperazin-1-yl)piperidin-1-yl)benzyl)-1H-pyrazol-4-yl)-9-methyl-6-oxo-6,7,8,9-tetrahydropyrido[3′,2′: 4,5]pyrrolo[1,2-a]pyrazine-2-carboxamide], the inhibition at 0.01 µM in experiment [1] (Table IN2) fell in the range of 0 to 5%; in experiment [1] (Table IN3), 20 to 30%; in experiment [2] (MV-4-11, 10 nM), 5 to 10%; in experiment [3], 10 to 15%. In addition, the inhibition at 0.5 µM in experiment [1] (Table IN2) fell in the range of 30 to 50%; in experiment [1] (Table IN3), 10 to 15%; in experiment [2] (MV-4-11, 500 nM) it was 80 to 100%; in experiment [3], 50 to 60%.

Take `CCc1cc2c(cc1N1CCC(N3CCOCC3)CC1)C(C)(C)c1[nH]c3cc(C#N)ccc3c1C2=O` [alectinib, Alectinib, reference compound]: the IC50 in experiment [5] (Table IB1, ALK inhibitor-based, read-out: Inhibitory activity (IC50, nM) on tumor cell proliferation, SR) was in the range of 1000 to 5000 nM. Also, the “Inhibition Rate at 10 nM (%)” value in experiment [5] (Table IB2, ALK inhibitor-based, 10 nM) was “IBa4 (15% ≤ IBa4 < 20%)”. Also, in experiment [5] (Table IB2, ALK inhibitor-based, 500 nM), the “Inhibition Rate at 500 nM (%)” value is reported as “IBa10 (80% ≤ IBa10 < 90%)”. Further, the inhibition at 0.01 µM was 5 to 10% in experiment [2] (Table IB2, ALK inhibitor-based, MV-4-11, 10 nM, 96 hours) and 5 to 10% in experiment [6] (H2228, 10 nM, read-out: Inhibition Rate at 10 nM (%)). Moreover, the inhibition at 0.5 µM was in the range of 30 to 45% in experiment [2] (Table IB2, ALK inhibitor-based, MV-4-11, 500 nM, 96 hours) and 20 to 30% in experiment [6] (H2228, 500 nM, read-out: Inhibition Rate at 500 nM (%)). Moreover, the “Inhibition Rate at 0.5 μM (%)” value in experiment [4] (0.5 μM) is listed as “a (0% < a ≤ 10%)”. Also, the “Inhibition Rate at 2 μM (%)” value in experiment [4] (2 μM) is recorded as “a (0% < a ≤ 10%)”.
